ChEMBL document CHEMBL3991601, “The target landscape of clinical kinase drugs” (Science, 2017)
pKd: −log10 of the molar value. The source made the active and inactive calls. On the calls: in the data inactive means no Kd found up to 30 µM.

Tests used:
Ephrin type-B receptor 3 = biological target: T1, Ephrin type-B receptor 3 (Homo sapiens, UniProt P54753)
T1 sequence (P54753 whole entry): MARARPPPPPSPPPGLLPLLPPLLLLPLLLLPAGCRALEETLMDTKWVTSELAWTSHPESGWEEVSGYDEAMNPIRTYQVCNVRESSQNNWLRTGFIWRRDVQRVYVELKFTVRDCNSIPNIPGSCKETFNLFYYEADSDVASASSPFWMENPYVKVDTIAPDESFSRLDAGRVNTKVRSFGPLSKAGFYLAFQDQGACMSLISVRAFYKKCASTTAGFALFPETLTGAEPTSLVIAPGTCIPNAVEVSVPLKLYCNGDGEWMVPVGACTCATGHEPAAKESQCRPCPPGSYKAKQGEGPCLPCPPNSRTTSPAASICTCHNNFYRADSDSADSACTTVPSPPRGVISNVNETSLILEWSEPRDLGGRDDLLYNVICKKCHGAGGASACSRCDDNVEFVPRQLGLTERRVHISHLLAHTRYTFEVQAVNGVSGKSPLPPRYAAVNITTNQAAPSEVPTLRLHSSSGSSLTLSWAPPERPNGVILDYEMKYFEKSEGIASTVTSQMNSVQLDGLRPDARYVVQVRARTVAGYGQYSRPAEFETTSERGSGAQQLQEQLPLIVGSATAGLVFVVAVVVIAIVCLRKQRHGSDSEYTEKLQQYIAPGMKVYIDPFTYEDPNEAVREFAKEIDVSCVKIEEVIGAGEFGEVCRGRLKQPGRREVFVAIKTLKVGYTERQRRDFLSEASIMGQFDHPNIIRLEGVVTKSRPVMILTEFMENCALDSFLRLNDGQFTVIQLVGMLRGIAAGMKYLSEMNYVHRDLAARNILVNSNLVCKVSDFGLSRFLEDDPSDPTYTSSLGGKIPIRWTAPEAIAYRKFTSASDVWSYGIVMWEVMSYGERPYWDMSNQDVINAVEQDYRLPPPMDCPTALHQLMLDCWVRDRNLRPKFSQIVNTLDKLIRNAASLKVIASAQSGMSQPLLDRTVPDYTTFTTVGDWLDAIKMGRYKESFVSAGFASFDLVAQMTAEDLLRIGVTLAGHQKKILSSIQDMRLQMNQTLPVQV

[1] = biological target: T2, Serine/threonine-protein kinase NLK (Homo sapiens, UniProt Q9UBE8)
T2 sequence (Q9UBE8 whole entry): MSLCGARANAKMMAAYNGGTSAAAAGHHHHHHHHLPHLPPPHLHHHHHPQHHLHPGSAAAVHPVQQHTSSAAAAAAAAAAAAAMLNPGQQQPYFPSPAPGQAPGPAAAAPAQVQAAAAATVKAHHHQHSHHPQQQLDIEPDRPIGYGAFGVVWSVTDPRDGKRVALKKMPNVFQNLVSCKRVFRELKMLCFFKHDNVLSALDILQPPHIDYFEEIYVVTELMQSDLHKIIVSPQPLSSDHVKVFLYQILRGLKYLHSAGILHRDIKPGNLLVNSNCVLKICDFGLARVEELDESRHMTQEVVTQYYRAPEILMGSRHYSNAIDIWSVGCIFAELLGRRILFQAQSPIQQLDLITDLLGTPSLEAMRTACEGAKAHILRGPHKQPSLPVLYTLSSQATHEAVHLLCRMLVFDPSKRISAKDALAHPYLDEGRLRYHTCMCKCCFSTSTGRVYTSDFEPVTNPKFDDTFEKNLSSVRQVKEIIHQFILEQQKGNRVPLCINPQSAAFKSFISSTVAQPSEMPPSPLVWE

[2] = biological target: T3, Peroxisomal acyl-coenzyme A oxidase 1 (Homo sapiens, UniProt Q15067)
T3 sequence (Q15067 whole entry): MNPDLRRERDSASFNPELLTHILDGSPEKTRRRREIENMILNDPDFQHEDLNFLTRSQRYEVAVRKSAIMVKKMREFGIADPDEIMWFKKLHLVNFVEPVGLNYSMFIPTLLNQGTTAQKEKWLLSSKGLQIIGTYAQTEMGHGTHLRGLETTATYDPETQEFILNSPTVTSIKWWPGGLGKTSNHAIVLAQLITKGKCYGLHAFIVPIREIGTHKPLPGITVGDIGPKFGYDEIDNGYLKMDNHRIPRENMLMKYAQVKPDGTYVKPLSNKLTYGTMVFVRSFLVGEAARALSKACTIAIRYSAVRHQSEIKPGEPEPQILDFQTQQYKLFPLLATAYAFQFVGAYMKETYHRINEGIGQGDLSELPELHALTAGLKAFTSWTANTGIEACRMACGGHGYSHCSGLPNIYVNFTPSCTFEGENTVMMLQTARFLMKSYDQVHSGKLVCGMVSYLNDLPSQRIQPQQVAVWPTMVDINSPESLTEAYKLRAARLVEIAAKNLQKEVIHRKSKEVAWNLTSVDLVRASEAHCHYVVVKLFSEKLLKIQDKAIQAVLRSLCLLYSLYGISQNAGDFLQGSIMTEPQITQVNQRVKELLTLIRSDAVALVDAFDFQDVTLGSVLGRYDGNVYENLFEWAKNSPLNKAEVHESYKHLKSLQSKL

| Compound | Kd (Ephrin type-B receptor 3) | Kd [1] | Kd [2] | pKd [1] |
| --- | --- | --- | --- | --- |
| Cc1ccc(C(=O)Nc2ccc(Oc3cc4cnn(C)c4cc3-c3cn[nH]c3)c(F)c2)c(=O)n1-c1ccc(F)cc1 [MERESTINIB] | > 30 µM (inactive) | > 30 µM (inactive) | > 30 µM (inactive) |  |
| Cc1c(Cn2c(C)nc3c(C(=O)O)cc(N4CCOCC4)cc32)cccc1C(F)(F)F [GSK-2636771] | > 30 µM (inactive) | > 30 µM (inactive) | > 30 µM (inactive) |  |
| Cn1cc(-c2[nH]c3cc(NC(=O)[C@H](N)C4CCCCC4)cc4c3c2C=NNC4=O)cn1 | > 30 µM (inactive) | > 30 µM (inactive) | > 30 µM (inactive) |  |
| COc1cc2ncnc(Nc3ccc(F)c(Cl)c3)c2cc1NC(=O)/C=C/CN1CCCCC1 [DACOMITINIB ANHYDROUS] | > 30 µM (inactive) | > 30 µM (inactive) | > 30 µM (inactive) |  |
| S=C(NCc1ccc2c(c1)OCO2)N1CCN(c2ncnc3c2oc2ccccc23)CC1 [AMUVATINIB] | > 30 µM (inactive) | > 30 µM (inactive) | > 30 µM (inactive) |  |
| O[C@H]1CC[C@H](Nc2ncc3nc(Nc4c(F)cc(F)cc4F)n([C@H]4CCOC4)c3n2)CC1 [TANZISERTIB] | > 30 µM (inactive) | > 30 µM (inactive) | > 30 µM (inactive) |  |
| C#Cc1cccc(Nc2ncnc3cc4c(cc23)OCCOCCOCCO4)c1 [ICOTINIB] | > 30 µM (inactive) | > 30 µM (inactive) | > 30 µM (inactive) |  |
| COc1cc2ncnc(Nc3ccc(O)cc3)c2cc1OC [WHI-P131] | > 30 µM (inactive) | > 30 µM (inactive) | > 30 µM (inactive) |  |
| Cn1c(=O)n(-c2ccc(C(C)(C)C#N)cc2)c2c3cc(-c4cnc5ccccc5c4)ccc3ncc21 [DACTOLISIB] | > 30 µM (inactive) | > 30 µM (inactive) | > 30 µM (inactive) |  |
| C=CC(=O)Nc1cc(Nc2nccc(-c3cn(C)c4ccccc34)n2)c(OC)cc1N(C)CCN(C)C [OSIMERTINIB] | > 30 µM (inactive) | > 30 µM (inactive) | > 30 µM (inactive) |  |
| FC(F)(F)c1ccc(CNc2ccc(Cc3c[nH]c4ncc(Cl)cc34)cn2)cn1 [PEXIDARTINIB] | > 30 µM (inactive) | > 30 µM (inactive) | > 30 µM (inactive) |  |
| COc1ccc2c(OCc3nnc4ccc(-c5ccccc5)nn34)ccnc2c1 [AMG-208] | > 30 µM (inactive) | > 30 µM (inactive) | > 30 µM (inactive) |  |
| O=S(=O)(c1cccc2cnccc12)N1CCCNCC1 [FASUDIL] | > 30 µM (inactive) | > 30 µM (inactive) | > 30 µM (inactive) |  |
| CCN(CCCOc1ccc2c(Nc3cc(CC(=O)Nc4cccc(F)c4)n[nH]3)ncnc2c1)CCOP(=O)(O)O [BARASERTIB] | > 30 µM (inactive) | > 30 µM (inactive) | > 30 µM (inactive) |  |
| CC1(COc2ccc3c(c2)ncn3-c2ccc3cccc(N4CCC(N)CC4)c3n2)COC1 [CRENOLANIB] | > 30 µM (inactive) | > 30 µM (inactive) | > 30 µM (inactive) |  |
| COc1cccc2cc(-c3nc([C@H]4CC[C@H](C(=O)O)CC4)n4ncnc(N)c34)[nH]c12 [OSI-027] | > 30 µM (inactive) |  | > 30 µM (inactive) | 5.48 |
| O=C(NC[C@H](O)CO)c1ccncc1Nc1ccc(I)cc1F [PIMASERTIB] | > 30 µM (inactive) | > 30 µM (inactive) | > 30 µM (inactive) |  |
| c1cc(OCCN2CCCCC2)cc(-c2n[nH]c3ccc(-c4nc[nH]n4)cc23)c1 [CC-401] | > 30 µM (inactive) | > 30 µM (inactive) | > 30 µM (inactive) |  |
| O=c1[nH]c([C@@H]2CCCN2)nc2c1oc1ccc(Cl)cc12 | > 30 µM (inactive) | > 30 µM (inactive) | > 30 µM (inactive) |  |
| COc1ccc(-c2ccc3ncc4c(c3c2)n(-c2ccc(N3CCNCC3)c(C(F)(F)F)c2)c(=O)n4C)cn1 [BGT-226 FREE BASE] | > 30 µM (inactive) | > 30 µM (inactive) | > 30 µM (inactive) |  |
| O=S(=O)(c1cccc2c(O)nccc12)N1CCCNCC1 [HYDROXYFASUDIL] | > 30 µM (inactive) | > 30 µM (inactive) | > 30 µM (inactive) |  |
| C[C@]1(O)C[C@@H](c2nc(-c3ccc4ccc(-c5ccccc5)nc4c3)c3c(N)nccn32)C1 [LINSITINIB] | > 30 µM (inactive) | > 30 µM (inactive) | > 30 µM (inactive) |  |
